Measured values reported in US20050042300A1, “Use of colostrinin, constituent peptides thereof, and analogs thereof as inhibitors of apoptosis and other cellular damage” (priority 2002, published 2005).

Tests used:
Type in all cases: cell-based
[1] = test system: 4HNE-protein adducts in PC12 cells; test: 4HNE-protein adduct formation, immunocytochemistry / fluorescent microscopy
Excerpt: Cell cultures: Pheochromocytoma (PC12) cells were provided by Dr. Regino Perez-Polo (University of Texas Medical Branch, Department of Human Biological Chemistry and Genetics) and maintained in EMEM supplemented with 10% fetal bovine serum, penicillin (100 IU/ml) and streptomycin (100 micrograms per milliliter (μg/ml)). Exponentially growing populations of PC12 cells were sub-cultured and used for all experiments. Immunocytochemistry: […] Cells were permeabilized by 0.3% Triton X-100, washed in PBS then incubated with primary antibody in PBS containing 0.05% Tween 20 (PBS-T). After washing 3 times in PBS-T, FITC-labeled anti-rabbit IgG (Santa Cruz Biotechnology Inc.) was added. Cells were washed (5 times, for 10 min) with PBS-T and mounted on microscope slides in anti-fade solution (Dako, Inc.). Images of cellular immunofluorescence were acquired using a NIKON Eclipse TE300 scanning microscope. Fluorescent microscopy and Western blot analysis was undertaken to investigate the extent of 4HNE protein-adduct formation in cultures of PC12 cells in the presence of CLN. Cells were pretreated with CLN or LAH in the presence or absence of 4HNE and then analyzed for the formation of 4HNE-protein adducts.

[2] = test system: intracellular GSH levels in PC12 cells; test: Intracellular glutathione (GSH), o-phthalaldehyde fluorescence
Description: Measurement of glutathione (GSH): In brief, PC12 cells were mock- or pre-treated with CLN or lactalbumin hydrolysate (LAH), both in 10 μg/ml concentration and then exposed to 4HNE (25 nM). PBS-washed (twice) cells were then extracted with 25% (w/v) metaphosphoric acid solution containing 5 mM EDTA. After ultracentrifugation (105,000 g for 30 min), 100 μl of 100 mM phosphate solution (pH 8.0) containing 5 mM EDTA and 10 μl of o-phthalaldehyde OPA(OPD; Molecular Probes, Inc.) was added to the supernatant, and the fluorescence intensity at 420 nm determined with excitation set at 350 nm (A. P. Senft et al., Anal Biochem., 280:80-86 (2000)).
To investigate whether the anti-oxidant effect of CLN was due to protection of intracellular GSH levels, PC12 cells were pre-treated (with CLN or LAH) and exposed to 4HNE, as described above, and changes in GSH levels were determined fluorimetrically. […] OPA (o-phthalaldehyde or phthalic dicarboxaldehyde) is highly fluorescent when it is conjugated to GSH (A. P. Senft et al., Anal Biochem., 280:80-86 (2000)).

PC12 cells = test: 4HNE-induced apoptosis, annexin V-PE / 7-AAD flow cytometry
Excerpt: Apoptosis is a specific mode of cell death recognized by a characteristic pattern of morphological, biochemical, and molecular changes. Currently the hallmark of apoptosis in vitro is DNA fragmentation and changes in plasma membrane reorganization that allows for the surface expression of phosphatidyl-D-serine and result in increased membrane permeability. The protection of cells against 4HNE by CLN using increased permeability and cell membrane expression of phosphatidyl-D-serine was investigated.
Cells were simultaneously labeled with fluorochrome-conjugated annexin V-PE (detecting PS asymmetry in the plasma membrane, an early marker of apoptosis), 7-aminoactinomycin D (7-AAD) (detecting increased membrane permeability associated with both apoptosis and necrosis). A dual laser flow cytometer (either a Becton-Dickinson FACScan) was used for the simultaneous detection of the PE-conjugated annexin V (which is excited at […]), 7-AAD (excited at 488 nm and emitting at 670 nm). Fluorochrome compatibility was excellent, although careful intralaser compensation is required for simultaneous use of PE and 7-AAD.

[3] = test system: 4HNE-protein adducts in PC12 cells; test: 4HNE-protein adduct levels, Western blot analysis; details: 4HNE alone 25, 12.5, 6.2 nM
Description: (§1) Western blot analysis: PC12 cells were plated at 7×10^6 cells/T75 flask. After exposure to 4HNE, colostrinin or their combination, cells were collected and lysed in 50 millimolar (mM) Tris, 5 mM EDTA, 150 mM NaCI, 0.5% NP-40, 10% glycerol and protease inhibitor cocktail (supplemented with 1 mM Na3VO4, 2 mM EDTA, 1 mM phenylmethylsulfonyl fluoride). Lysates were centrifuged at 14,000 g for 10 minutes (min) (4° C.) and 40 μg of protein was fractionated on a 10% SDS-polyacrylamide gel and transferred to protein-optimized membranes (Amersham, Inc.). p53 was detected using specific antibody (DO1; Santa Cruz Biotechnology, Inc.) at a dilution of 1:300. Adducts were detected using an antibody to HNE-protein adducts (Pharmingen, Inc.) at a dilution of 1:500. The anti-phospho-JNK antibody (New England Biolabs, Inc., Beverly, Mass.) was raised against a synthetic phosphopeptide (SFMMT*PY*VVTRYYR) corresponding to residues 179-193 of JNK. For visualization of primary antibody binding, all blots were incubated with horseradish peroxidase-conjugated secondary antibody (Amersham, Inc.) at a dilution of 1:2000, followed by chemiluminescence detection (Amersham, Inc.) and autoradiography.
To confirm the results generated by immunochemistry, Western blot analysis was used to investigate changes in 4HNE-protein adduct levels in cells treated with 4HNE alone or CLN plus 4HNE.

p53 = test: 4HNE-induced activation of p53, Western blot; details: PC12 cells; 4HNE alone
Description: as §1
Whether CLN could modulate p53 levels after 4HNE exposure was also investigated.

[4] = test system: GSH extrusion from PC12 cells; test: Reduced GSH in extracellular fluid (GSH extrusion), OPA-GSH fluorescence; details: 4HNE, relative to CLN- or mock-treated cells, data not shown
Description: To determine whether the loss of intracellular GSH was due to it's extrusion from the cells or oxidation, the level of reduced GSH in the extra-cellular fluid was evaluated.

JNK = test: 4HNE-induced JNK phosphorylation, Western blot with anti-phospho-(Thr-183/Tyr-185) JNK antibody; details: PC12 cells
Description: as §1, with “For visualization of primary antibody binding, all blots were incubated with horseradish peroxidase-conjugated secondary antibody (Amersham, Inc.) at a dilution of 1:2000, followed by chemiluminescence detection (Amersham, Inc.) and autoradiography.” left out
The effect of CLN on 4HNE-induced activation of JNK in PC12 cells was investigated. The activation of JNK was monitored by Western blot analysis using a highly specific anti-phospho- (Thr-183/Tyr-185) JNK antibody (Materials and Methods).

SH-SY5Y cells = test: Protection against retinoic acid toxicity in SH-SY5Y cells, graded under the microscope; details: for DIFFERENTIATION: Retinoic Acid 20 μM (Day 1) alone
Description: Retinoic Acid was left on the plate for the duration of the experiment or until washed off. Colostrinin was added to the plate at the indicated doses. When added on Day 1, it was present during the entire experiment. When added on Day 5, it was incubated on the plate for 30 minutes at 37° C. and then removed. The wells were washed twice with PBS before adding β-Amyloid. Cultures were then observed under the microscope and graded.

SMILES: CCCCCC(O)/C=C/C=O (stereo not drawn) [4HNE]
- fluorescence due to antibody binding to 4HNE-protein adducts ([1]; 4HNE 25 nM alone): bright fluorescence
- loss of GSH ([2]; 25 nM 4HNE): more than 50%
- intracellular GSH levels (OPA-GSH fluorescence) ([2]; 4HNE 25 nM alone, 30 min): significant reduction
- toxic effects / apoptosis (PC12 cells; 4HNE 25 nM): did not show toxic effects or induce apoptosis
- apoptosis (PC12 cells; 4HNE 100 nM): Induction of apoptosis
- levels of 4HNE-protein adducts (Western blot) [3]: significant increase
- activation of p53 (p53): induced its activation
- OPA-GSH-mediated fluorescence of extracellular fluid [4]: significant increase
- JNK phosphorylation (JNK; 4HNE 25 nM alone): potent inducer of JNK phosphorylation

SMILES: Nc1ncnc2c1nc(Sc1ccc(Cl)cc1)n2[C@@H]1O[C@@H]2COP(=O)(O)O[C@H]2[C@H]1O [8-(4-chlorophenylthio)-cAMP]
- 4HNE-induced JNK phosphorylation (JNK; pretreatment with inhibitor of JNK activation, 4HNE): prevented 4HNE-induced JNK phosphorylation

SMILES: OO [H2O2]
- fluorescence due to antibody binding to 4HNE-protein adducts ([1]; H2O2 100 μM): bright fluorescence

SMILES: CC1=C(/C=C/C(C)=C/C=C/C(C)=C/C(=O)O)C(C)(C)CCC1 [Retinoic Acid]
- DIFFERENTIATION (SH-SY5Y cells; observed Day 2): ++++ (Approximately 100% of the cells)
- DIFFERENTIATION (SH-SY5Y cells; observed Day 8): + (Approximately 25% of the cells)
- onset of toxicity of retinoic acid (SH-SY5Y cells; SH-SY5Y cells, retinoic acid 20 μM): started showing signs of toxicity by day 6
- toxicity of retinoic acid (SH-SY5Y cells; SH-SY5Y cells, retinoic acid 40 μM): toxicity developed too rapidly
